Consider two compounds from article PMC8621101, “Inhibition of XPO-1 Mediated Nuclear Export through the Michael-Acceptor Character of Chalcones” (Pharmaceuticals, 2021).

The nature of series [1]: GSH reactivity assay (HPLC, DTNB quench). The series is classed as physicochemical. The following applies: 500 µM compound, 5 mM GSH, 37 °C; for Reaction with GSH (hetero-Michael addition), qualitative: PBS pH 7.4 with EDTA:DMSO 1:1; for Reversibility of GSH adducts (retro-Michael), qualitative: longer incubation. Here is the method:
In order to determine if these chalcones could react with thiol groups through a hetero-Michael addition reaction, a few selected compounds (9, 10, 13 and 18) were incubated with glutathione (GSH). After different incubation times, the reactions were quenched by adding 5,5′-dithiobis(2-nitrobenzoic acid) (DTNB, Ellman´s reagent) (1:1 ratio with respect to the initial concentration of GSH). The course of the reaction was followed by HPLC, adapting reported procedures. […] Thus, although this assay is only qualitative, the tendency observed among these chalcones nicely fits the reactivity described for α-X-2´3,4,4´-tetramethylchalcones.
A 500 µM sample of the tested compound was incubated with 5 mM reduced L-glutathione for 24 h at 37 °C with a final volume of 200 μL. As a solvent system, 20 mM PBS buffer pH 7.4 with 2 mM EDTA:DMSO (1:1) was used. To perform the assay, stock solutions of 20 mM of the chalcones (9, 10, 13 and 18) and 15 mM of reduced L-glutathione were freshly prepared for every experiment and then diluted properly to give the final electrophile:nucleophile ratio (1:10). A 5 mM solution of 5,5′-dithiobis(2-nitrobenzoic acid) (DTNB) was prepared in the same solvent system to quench the reaction. After different time points (10 min, 1 h, 4 h and 24 h), an aliquot of 20 μL of the incubation mixture was quenched by adding 20 μL of the DTNB stock solution, mixed thoroughly, and then analyzed by HPLC. HPLC analysis was performed in Agilent 1120 compact LC, column ACE 5 C18-300 (15 cm × 4.6 mm); UV detection was performed at λ = 254 nm. Solvents used were acetonitrile for bottle A and H2O (containing 0.05% TFA) for bottle B, and the flow rate was 1mL/min. The gradients used were: (A) incubations with chalcone 9: from 10% to 80% of solvent A in 10 min; (B) incubations with chalcones 10 and 18: from 10% to 100% of solvent A in 10 min. The new peaks were analysed by LC-MS. As controls, a 500 μM solution of the α,β-unsaturated compound was also analysed, and a 5 mM reduced L-glutathione solution was quenched by adding DNTB at the same time points. In general, after 6 h of incubation, no GSH was detected.

For a further series, the system named is Z-138 cells. Nature of the series: Cell proliferation assay (IncuCyte confluence), Z-138. The class given is cell-based. The following applies: Homo sapiens; Z-138 non-Hodgkin lymphoma; 72 h; mean of two independent experiments ± SEM; read-out: IC50 antiproliferative activity Z-138. The protocol: Cancer cell lines HCT-116, NCI-H460, HL-60, K-562 and Z-138 were acquired from the American Type Culture Collection (ATCC, Manassas, VA, USA). The DND-41 cell line was purchased from the Deutsche Sammlung von Mikroorganismen und Zellkulturen (DSMZ Leibniz-Institut, Brunswick, Germany), and the HAP-1 cell line was ordered from Horizon Discovery (Horizon Discovery Group, Water Beach, UK). All cell lines were cultured as recommended by the suppliers. Culture media were purchased from Gibco Life Technologies and supplemented with 10% fetal bovine serum (HyClone, GE Healthcare Life Sciences, Chicago, Illinois, USA).
Adherent cell lines HCT-116, NCI-H460 and Hap-1 cells were seeded at a density between 500 and 1500 cells per well in 384-well tissue culture plates (Greiner). After overnight incubation, cells were treated with different concentrations of the test compounds. Suspension cell lines HL-60, K-562, Z-138 and DND-41 were seeded at densities ranging from 2500 to 5500 cells per well in 384-well culture plates containing the test compounds at the same concentration points.

The structures appear in SMILES notation.

What is called IC50 is the midpoint of a concentration-inhibition curve. Regarding `O=C(/C=C/c1cncnc1)c1ccc2ccccc2c1` [Compound 9, (E)-1-(Naphthalen-2-yl)-3-(pyrimidin-5-yl)prop-2-en-1-one], in series [1], the “Reaction with GSH (hetero-Michael addition), qualitative” value was “quickly reacted with GSH” and the “Reversibility of GSH adducts (retro-Michael), qualitative” value is recorded as “underwent a retro-Michael addition reaction”. Further, the IC50 with Z-138 cells was determined as 1800 ± 50 nM.

As for `COc1cc(OC)cc(C(=O)/C=C/c2cncnc2)c1` [Compound 10, (E)-1-(3′,5′-Dimethoxyphenyl)-3-(pyrimidin-5′’-yl)prop-2-en-1-one], in series [1], the “Reaction with GSH (hetero-Michael addition), qualitative” value was “quickly reacted with GSH” and the “Reversibility of GSH adducts (retro-Michael), qualitative” value is on record as “underwent a retro-Michael addition reaction”. In the series with Z-138 cells, the IC50 was found to be 500 ± 50 nM.
